# In ChEMBL document CHEMBL5579838, “Design, synthesis and antitumor activity of a novel FGFR2-selective degrader to overcome resistance of the FGFR2V564F gatekeeper mutation based on a pan-FGFR inhibitor” (Eur J Med Chem, 2024):
# Target: Fibroblast growth factor receptor 2 (Homo sapiens, UniProt P21802)
# Test: not given
# Settings: not given
# Sequence of Fibroblast growth factor receptor 2 (P21802 whole entry): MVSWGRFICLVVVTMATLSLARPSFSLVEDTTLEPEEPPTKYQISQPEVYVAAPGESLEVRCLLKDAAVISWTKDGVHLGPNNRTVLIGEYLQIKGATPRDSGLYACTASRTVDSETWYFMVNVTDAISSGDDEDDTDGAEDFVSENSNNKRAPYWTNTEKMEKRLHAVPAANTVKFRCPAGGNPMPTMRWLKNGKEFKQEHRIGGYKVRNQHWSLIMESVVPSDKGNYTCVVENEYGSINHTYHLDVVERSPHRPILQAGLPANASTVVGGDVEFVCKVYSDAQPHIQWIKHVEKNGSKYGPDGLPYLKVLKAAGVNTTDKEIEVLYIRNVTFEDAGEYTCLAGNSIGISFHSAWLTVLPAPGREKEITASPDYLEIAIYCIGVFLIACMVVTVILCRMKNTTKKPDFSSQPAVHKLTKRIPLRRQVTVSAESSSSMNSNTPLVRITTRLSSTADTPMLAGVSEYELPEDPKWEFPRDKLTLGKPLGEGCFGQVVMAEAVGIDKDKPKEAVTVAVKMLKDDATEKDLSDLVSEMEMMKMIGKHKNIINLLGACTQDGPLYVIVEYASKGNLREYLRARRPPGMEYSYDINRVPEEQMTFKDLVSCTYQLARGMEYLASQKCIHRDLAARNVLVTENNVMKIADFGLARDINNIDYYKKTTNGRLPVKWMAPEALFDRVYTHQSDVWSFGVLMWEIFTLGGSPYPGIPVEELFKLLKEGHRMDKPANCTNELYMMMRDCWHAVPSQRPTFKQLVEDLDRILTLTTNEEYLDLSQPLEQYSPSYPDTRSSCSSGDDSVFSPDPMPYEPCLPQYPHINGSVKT
row,IC50 [nM],SMILES
1,2.09,C[C@@H](Oc1ccc2[nH]nc(/C=C/c3cnn(CCN)c3)c2c1)c1c(Cl)cncc1Cl

# Test system: KATO III stomach cancer cell line
# Test: cells
# Settings: Homo sapiens, 72 h
# Description: Antiproliferative activity against FGFR2 amplified human KATO III cells measured after 3 days by MTT assay
row,IC50 [nM],SMILES
1,41.8,C[C@@H](Oc1ccc2[nH]nc(/C=C/c3cnn(CCNC(=O)/C=C/c4ccc(C(F)(F)F)cc4)c3)c2c1)c1c(Cl)cncc1Cl
2,47,C[C@@H](Oc1ccc2[nH]nc(/C=C/c3cnn(CCNC(=O)CNc4ccc5c(c4)C(=O)N(C4CCC(=O)NC4=O)C5=O)c3)c2c1)c1c(Cl)cncc1Cl (stereo not given in full)
3,20,C[C@@H](Oc1ccc2[nH]nc(/C=C/c3cnn(CCNC(=O)CCCCNc4ccc5c(c4)C(=O)N(C4CCC(=O)NC4=O)C5=O)c3)c2c1)c1c(Cl)cncc1Cl (stereo not given in full)
4,> 50,Cc1ncsc1-c1ccc(CNC(=O)[C@@H]2C[C@@H](O)CN2C(=O)[C@@H](NC(=O)CCCCCC(=O)NCCn2cc(/C=C/c3n[nH]c4ccc(O[C@H](C)c5c(Cl)cncc5Cl)cc34)cn2)C(C)(C)C)cc1
5,14.8,C[C@@H](Oc1ccc2[nH]nc(/C=C/c3cnn(CCNC(=O)CCNc4ccc5c(c4)C(=O)N(C4CCC(=O)NC4=O)C5=O)c3)c2c1)c1c(Cl)cncc1Cl (stereo not given in full)
6,> 50,Cc1ncsc1-c1ccc(CNC(=O)[C@@H]2C[C@@H](O)CN2C(=O)[C@@H](NC(=O)CCCCC(=O)NCCn2cc(/C=C/c3n[nH]c4ccc(O[C@H](C)c5c(Cl)cncc5Cl)cc34)cn2)C(C)(C)C)cc1
7,7.29,C[C@@H](Oc1ccc2[nH]nc(/C=C/c3cnn(CCNc4ccc5c(c4)C(=O)N(C4CCC(=O)NC4=O)C5=O)c3)c2c1)c1c(Cl)cncc1Cl (stereo not given in full)
8,> 50,C[C@@H](Oc1ccc2[nH]nc(/C=C/c3cnn(CCNC(=O)/C=C/C(=O)c4ccc(Cl)cc4)c3)c2c1)c1c(Cl)cncc1Cl
9,6.83,C[C@@H](Oc1ccc2[nH]nc(/C=C/c3cnn(CCNc4cccc5c4C(=O)N(C4CCC(=O)NC4=O)C5=O)c3)c2c1)c1c(Cl)cncc1Cl (stereo not given in full)
10,12.1,C[C@@H](Oc1ccc2[nH]nc(/C=C/c3cnn(CCNC(=O)/C=C/C(=O)c4ccc(F)cc4)c3)c2c1)c1c(Cl)cncc1Cl
11,> 50,C[C@@H](Oc1ccc2[nH]nc(/C=C/c3cnn(CCNC(=O)/C=C/c4cc(C(F)(F)F)cc(C(F)(F)F)c4)c3)c2c1)c1c(Cl)cncc1Cl
12,> 50,Cc1ncsc1-c1ccc(CNC(=O)[C@@H]2C[C@@H](O)CN2C(=O)[C@@H](NC(=O)CCCC(=O)NCCn2cc(/C=C/c3n[nH]c4ccc(O[C@H](C)c5c(Cl)cncc5Cl)cc34)cn2)C(C)(C)C)cc1
13,17.5,C[C@@H](Oc1ccc2[nH]nc(/C=C/c3cnn(CCNC(=O)CCCCNc4cccc5c4C(=O)N(C4CCC(=O)NC4=O)C5=O)c3)c2c1)c1c(Cl)cncc1Cl (stereo not given in full)
14,39.2,C[C@@H](Oc1ccc2[nH]nc(/C=C/c3cnn(CCNC(=O)/C=C/c4cccc(C(F)(F)F)c4)c3)c2c1)c1c(Cl)cncc1Cl
15,10.1,COc1ccc(C(=O)/C=C/C(=O)NCCn2cc(/C=C/c3n[nH]c4ccc(O[C@H](C)c5c(Cl)cncc5Cl)cc34)cn2)cc1
16,10.4,C[C@@H](Oc1ccc2[nH]nc(/C=C/c3cnn(CCNC(=O)CCCNc4ccc5c(c4)C(=O)N(C4CCC(=O)NC4=O)C5=O)c3)c2c1)c1c(Cl)cncc1Cl (stereo not given in full)
17,8.08,C[C@@H](Oc1ccc2[nH]nc(/C=C/c3cnn(CCNC(=O)CCCNc4cccc5c4C(=O)N(C4CCC(=O)NC4=O)C5=O)c3)c2c1)c1c(Cl)cncc1Cl (stereo not given in full)
18,46.6,C[C@@H](Oc1ccc2[nH]nc(/C=C/c3cnn(CCNC(=O)/C=C/C(=O)c4ccc(Br)cc4)c3)c2c1)c1c(Cl)cncc1Cl
19,22.4,C[C@@H](Oc1ccc2[nH]nc(/C=C/c3cnn(CCNC(=O)CNc4cccc5c4C(=O)N(C4CCC(=O)NC4=O)C5=O)c3)c2c1)c1c(Cl)cncc1Cl (stereo not given in full)
20,15.4,C[C@@H](Oc1ccc2[nH]nc(/C=C/c3cnn(CCNC(=O)/C=C/C(=O)c4ccccc4)c3)c2c1)c1c(Cl)cncc1Cl
21,4.16,C[C@@H](Oc1ccc2[nH]nc(/C=C/c3cnn(CCNC(=O)CCNc4cccc5c4C(=O)N(C4CCC(=O)NC4=O)C5=O)c3)c2c1)c1c(Cl)cncc1Cl (stereo not given in full)
22,> 50,Cc1ncsc1-c1ccc(CNC(=O)[C@@H]2C[C@@H](O)CN2C(=O)[C@@H](NC(=O)CCC(=O)NCCn2cc(/C=C/c3n[nH]c4ccc(O[C@H](C)c5c(Cl)cncc5Cl)cc34)cn2)C(C)(C)C)cc1
23,4.93,C[C@@H](Oc1ccc2[nH]nc(/C=C/c3cnn(CCNC(=O)CCCCCNc4cccc5c4C(=O)N(C4CCC(=O)NC4=O)C5=O)c3)c2c1)c1c(Cl)cncc1Cl (stereo not given in full)
24,> 50,Cc1ncsc1-c1ccc(CNC(=O)[C@@H]2C[C@@H](O)CN2C(=O)[C@@H](NC(=O)CCC(=O)NCn2cc(/C=C/c3n[nH]c4ccc(O[C@H](C)c5c(Cl)cncc5Cl)cc34)cn2)C(C)(C)C)cc1
